Test results published in patent US20250195488A1, “MEDICINE CONTAINING VITAMIN D DERIVATIVE OR PHARMACEUTICALLY ACCEPTABLE SALT OR SOLVATE THEREOF, USED IN COMBINATION WITH IMMUNOMODULATORY SUBSTANCE” (TEEJIN PHARMA LIMITED, priority 2022, published 2025).

Columns and labels:
[1] = Evaluation of calcium increasing action in normal mice; details: 2 weeks; for Serum calcium conc.: C57BL/6J mice, Vehicle 8.9
Method: After acclimatizing C57BL/6J mice (7 weeks old, male) for 1 week, the mice were divided into groups of 5 mice based on the body weight, and administration of the compound or vehicle was started. The administration solution used was a compound (in ethanol) or ethanol diluted 100-fold with 0.1% Trion X-100 (SIGMA #X100-100 ML)/saline, and the repeated oral administration at once a day was performed. After administration of 2 weeks, euthanasia was performed by collecting all blood under general anesthesia.

[2] = Evaluation of brain penetration in mice; format: in vivo, mouse; details: C57BL/6J mice; for Concentration in brain (mean ± SD) at brain Cmax: Test 2: 0.2 mg/kg single oral dose, n=3
Method: The administration solution was administered orally to C57BL/6J mice (8 weeks old, male, n=3) at a single dose (1 mg/kg). Mice were euthanized at 6 points of 0.25, 0.5, 1, 2, 4, and 8 hours after administration, and plasma and brain sampling were performed. After preparing a homogenate from the collected brain using Tissue Lyser II (QIAGEN #85300), acetonitrile was added to the homogenate and the homogenate was centrifuged (12000 rpm, 5 minutes) to extract the administered test compound contained in the brain. Similarly, the plasma was subjected to addition of acetonitrile and centrifugal separation to extract the administered test compound contained in the plasma. Each extracted sample was subjected to measurement of the concentration of administered test compound using LC/MS/MS (SHIMADZU UFLC/MS/MS (8050)).
The administration solution was administered orally to C57BL/6J mice (8 weeks old, male, n=3) at a single dose (0.2 mg/kg). Mice were euthanized at 6 points of 0.25, 0.5, 1, 2, 4, and 8 hours after administration, and plasma and brain sampling were performed. After preparing a homogenate from the collected brain using Tissue Lyser II (QIAGEN #85300), acetonitrile was added to the homogenate and the homogenate was centrifuged (12000 rpm, 5 minutes) to extract the administered compound contained in the brain. Similarly, the plasma was subjected to addition of acetonitrile and centrifugal separation to extract the administered test compound contained in the plasma. Each extracted sample was subjected to measurement of the concentration of administered test compound using LC/MS/MS (SHIMADZU UFLC/MS/MS (8050)).

[3] = system: mouse experimental autoimmune encephalomyelitis model; experiment: Combination therapy with the vitamin D derivative and an immunosuppressant (fingolimod) in mouse experimental autoimmune encephalomyelitis model; format: in vivo; details: for clinical score on the day after final administration (Day 30): oral once a day, two weeks
Method: Using a mouse experimental autoimmune encephalomyelitis model, we evaluated the efficacy of the vitamin D derivative of the present invention in combination with fingolimod (an immunosuppressant) approved as a therapeutic drug for multiple sclerosis.
A mouse experimental autoimmune encephalomyelitis model was generated using the Hooke Kit MOG35-55/CFA Emulsion PTX (Cosmo Bio #EK-2110). C57BL/6J mice (11 weeks old, female) were anesthetized with 2.5% isoflurane inhalation and administered 0.1 mL of MOG35-55-CFA subcutaneously to the back and base of the tail, and then two hours later, administered 0.1 mL of pertussis toxin (PTX) intraperitoneally for the initial immunization. One day after the first immunization, 0.1 mL of PTX was administered intraperitoneally again. After the first immunization, clinical scores were measured once a day based on the following criteria. • 0 No abnormality • 0.5 Decrease in tension at the tip of the tail • 1.0 Limp tail • 1.5 Limp tail, and weakness of one hind limb • 2.0 Limp tail, and weakness of both hind limbs with abnormal gait • 2.5 Limp tail, and partial paralysis of one hind limb or abnormal righting reflex • 3.0 Limp tail, and partial paralysis of both hind limbs • 3.5 Limp tail, and paralysis of one hind limb • 4.0 Limp tail, and paralyses of both hind limbs • 4.5 Limp tail, paralyses of both hind legs, and weakness of one forelimb • 5.0 Limp tail, paralyses of both hind limbs, and weakness of both forelimbs (moribund)
Sixteen days after the first immunization, the disease-induced groups were divided into six groups of eight mice each based on the clinical scores, and administration of the compound (D023 6 g/kg) or vehicle was started. […] Two weeks after administration, the mice were euthanized and their spinal cords and whole blood were collected. The intact group indicates a non-treated group.

[4] = system: rat oligodendrocyte progenitor cells; experiment: Promotive activity of rat oligodendrocyte progenitor cell differentiation-1 (MBP gene expression, mRNA); format: cell-based; details: 96 h, read-out: promotive activity at T3 base (MBP gene expression; DMSO 0%, T3 100%)
Method: Regarding vitamin D derivatives, which was confirmed to act on the vitamin D receptor (VDR) in Example 352, the promotive activity of oligodendrocyte progenitor cell (OPC) differentiation was evaluated by MBP gene expression (mRNA).
A forebrain obtained from SD rat (Charles River Japan, 1 day old) was crushed with 70 μm Cell Strainer (Falcon #352350), and a cell suspension was prepared by collecting the cells in oligodendrocyte progenitor cell separation medium (20% FBS/2 mM Glutamax (Gibco #35050-061)/i mM sodium pyruvate (Gibco #11360-070)/1% penicillin-streptomycin (Invitrogen #15140-122)/DMEM (Gibco #11960-044)). The cell suspension was seeded in a poly-D-lysine coated T75 flask (Thermo Fisher Scientific #132704) and cultured for about 2 weeks. After culturing, the flask was shaken using a rotary shaker ([…] #WB-101SRC) for about 1 hour (37° C., 100 rpm), and the supernatant was discarded to remove microglia. Subsequently, oligodendrocyte progenitor cell separation medium was added to the flask, and the mixture was similarly shaken for about 22 hours (37° C., 200 rpm), and the supernatant was collected to prepare oligodendrocyte progenitor cells. […]

[5] = compound D023 + fingolimod 0.1 mg/kg (Combination L) vs single group of fingolimod 0.1 mg/kg
[6] = compound D023 + fingolimod 1.0 mg/kg (Combination H) vs single group of fingolimod 1.0 mg/kg

| SMILES | Calcium conc. Fluctuation range ([1]; 20 μg/kg oral once a day) [mg/dL] | Serum calcium conc. ([1]; 20 μg/kg oral once a day) [mg/dL] | Calcium conc. Fluctuation range ([1]; 60 μg/kg oral once a day) [mg/dL] | Serum calcium conc. ([1]; 60 μg/kg oral once a day) [mg/dL] | Calcium conc. Fluctuation range ([1]; 200 μg/kg oral once a day) [mg/dL] | Serum calcium conc. ([1]; 200 μg/kg oral once a day) [mg/dL] | Concentration in brain (mean ± SD) at brain Cmax [2] [pmol/g] | further results |
| --- | --- | --- | --- | --- | --- | --- | --- | --- |
| C[C@H](CCN1CCOCC1)[C@H]1CC[C@H]2/C(=C/C=C3C[C@@H](O)C[C@H](O)C3)CCC[C@]12C [Compound D023, (1R,3R)-5-(2-((1R,3aS,7aR,E)-7a-methyl-1-((R)-4-morpholinobutan-2-yl)octahydro-4H-inden-4-ylidene)ethylidene)cyclohexane-1,3-diol] |  |  |  |  |  |  |  | blood lymphocyte count on the day after final administration (Day 30) [3, 5]: no significant difference; clinical score on the day after final administration (Day 30) [3, 5]: significantly lower clinical score; blood lymphocyte count on the day after final administration (Day 30) [3, 6]: neither was there a significant difference; clinical score on the day after final administration (Day 30) [3, 6]: significantly lower clinical score |
| COC1(C)CCCN(C[C@@H](C)[C@H]2CC[C@H]3/C(=C/C=C4C[C@@H](O)C[C@H](O)C4)CCC[C@]23C)C1 (stereo partly drawn) [Compound C045b, (1R,3R)-5-(2-((1R,3aS,7aR,E)-1-((2S)-1-(3-methoxy-3-methylpiperidine-1-yl)propan-2-yl)-7a-methyloctahydro-4H-inden-4-ylidene)ethylidene)cyclohexane-1,3-diol] |  |  |  |  |  |  |  | activation at 1 µM [4]: ≥ 20% |
| C[C@H](CN1CCOC2(CC2)C1)[C@H]1CC[C@H]2/C(=C/C=C3C[C@@H](O)C[C@H](O)C3)CCC[C@]12C [Compound D019, (1R,3R)-5-(2-((1R,3aS,7aR,E)-1-((S)-1-(4-oxa-7-azaspiro[2.5]octan-7-yl)propan-2-yl)-7a-methyloctahydro-4H-inden-4-ylidene)ethylidene)cyclohexane-1,3-diol] |  |  |  |  |  |  |  | Concentration ratio in brain/in blood at brain Cmax ([2]; Test 1: 1 mg/kg single oral dose): 2.89 |

The next lines start with results.

| Calcium conc. Fluctuation range ([1]; 20 μg/kg oral once a day) [mg/dL] | Serum calcium conc. ([1]; 20 μg/kg oral once a day) [mg/dL] | Calcium conc. Fluctuation range ([1]; 60 μg/kg oral once a day) [mg/dL] | Serum calcium conc. ([1]; 60 μg/kg oral once a day) [mg/dL] | Calcium conc. Fluctuation range ([1]; 200 μg/kg oral once a day) [mg/dL] | Serum calcium conc. ([1]; 200 μg/kg oral once a day) [mg/dL] | Concentration in brain (mean ± SD) at brain Cmax [2] [pmol/g] | SMILES | further results |
| --- | --- | --- | --- | --- | --- | --- | --- | --- |
| 0 | 8.9 | -0.1 | 8.8 | 0.1 | 9.0 | 171.2 ± 37.4 | C[C@H](CN1CCOC[C@@H]1C)[C@H]1CC[C@H]2/C(=C/C=C3C[C@@H](O)C[C@H](O)C3)CCC[C@]12C [Compound G004, (1R,3R)-5-(2-((1R,3aS,7aR,E)-7a-methyl-1-((S)-1-((S)-3-methylmorpholino)propan-2-yl)octahydro-4H-inden-4-ylidene)ethylidene)cyclohexane-1,3-diol] |  |
| 0.2 | 9.1 | 0.2 | 9.1 | 0.1 | 9.0 | 140.8 ± 17.6 | C[C@H](CN1CCOC[C@H]1C)[C@H]1CC[C@H]2/C(=C/C=C3C[C@@H](O)C[C@H](O)C3)CCC[C@]12C [Compound G005, (1R,3R)-5-(2-((1R,3aS,7aR,E)-7a-methyl-1-((S)-1-((R)-3-methylmorpholino)propan-2-yl)octahydro-4H-inden-4-ylidene)ethylidene)cyclohexane-1,3-diol] |  |
| 0 | 8.9 | 0 | 8.9 | -0.3 | 8.6 | 137.8 ± 11.5 | C[C@H](CN1CCOCC1(C)C)[C@H]1CC[C@H]2/C(=C/C=C3C[C@@H](O)C[C@H](O)C3)CCC[C@]12C [Compound G006, (1R,3R)-5-(2-((1R,3aS,7aR,E)-1-((S)-1-(3,3-dimethylmorpholino)propan-2-yl)-7a-methyloctahydro-4H-inden-4-ylidene)ethylidene)cyclohexane-1,3-diol] |  |
